Among the data in PubChem BioAssay (NCI) are TGI and GI50 values, retold here.

Among the test systems are SN12C renal; HT29 colon; SNB-75 CNS; M14 melanoma; SK-MEL-28 melanoma; SW-620 colon; UACC-62 melanoma; CAKI-1 renal; OVCAR-3 ovarian; EKVX NSCLC.
Common to all, as to assay: NCI anticancer screen, dose series, 48 h

“And” between values parts separate entries of the source, which are not always exact repeats. Equal entries are not always repeated.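 Dose response: 5 concentrations. Exposure: 48 h. Format: 96-well plates. Endpoint: linear interpolation; highest concentration if not reached. GI50: concentration for 50% inhibition of growth. TGI: concentration producing complete growth inhibition.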 Where only a bound is given, the exact number is not on record here.

As to `NC(=O)/C=C/C(=O)O`, the TGI in the assay on SN12C renal, with HT29 colon, in the assay with SNB-75 CNS, with M14 melanoma, with SK-MEL-28 melanoma and with SW-620 colon was over 5000 µM in each case. The same compound returned a TGI in the assay with UACC-62 melanoma of over 5000 µM.

Regarding `Cc1c(C(=O)CSc2nc3ccccc3c(=O)n2-c2ccccc2)c(=O)n(-c2ccccc2)n1C`, the TGI was over 100 µM in the assay with SN12C renal; 0.729 µM with CAKI-1 renal; over 100 µM in the assay with HT29 colon; over 100 µM in the assay on SNB-75 CNS; over 100 µM in the assay with M14 melanoma; 73.5 µM with OVCAR-3 ovarian. Further, the TGI in the assay on SK-MEL-28 melanoma and with SW-620 colon was over 100 µM each time.

With `COC(=O)/C(C#N)=C1\CCC(C(=O)OC)N1C` (centres undefined), the TGI in the assay with SN12C renal, in the assay with CAKI-1 renal, in the assay with SNB-75 CNS, in the assay with M14 melanoma, in the assay with EKVX NSCLC and with OVCAR-3 ovarian was over 100 µM in each case. The TGI in the assay on SK-MEL-28 melanoma and in the assay on UACC-62 melanoma was over 100 µM in each case.

Regarding `CCC1=C[C@@H]2CN(C1)Cc1c([nH]c3ccccc13)[C@@](C(=O)OC)(c1cc3c(cc1OC)N(C)[C@H]1[C@@](O)(C(=O)OC)[C@H](OC(C)=O)[C@]4(CC)[C@@H]5C[C@@H]5CN5CC[C@]31[C@@H]54)C2`, the TGI with SN12C renal is 7.54 µM and 18.5 µM; with CAKI-1 renal, 6.17 µM and 20.5 µM; in the assay with HT29 colon it was 0.8 µM and 1.06 µM; in the assay on SNB-75 CNS it was 11 µM; in the assay on SK-MEL-28 melanoma it was 7.96 µM; in the assay with SW-620 colon, 9.16 µM and 21 µM. The TGI in the assay with UACC-62 melanoma is 6.39 µM and 16.9 µM. Also, the GI50 in the assay on CAKI-1 renal was 0.0319 µM and 0.0818 µM; with HT29 colon, under 0.005 µM; with M14 melanoma, < 0.005 µM and 0.0119 µM; in the assay on SK-MEL-28 melanoma it was under 0.005 µM; in the assay on SW-620 colon it was under 0.005 µM; with UACC-62 melanoma, under 0.005 µM.

Consider `c1ccc(Cn2cnc3ccc(-c4nc(-c5ccc6c(c5)ncn6C5CCCCC5)cn5ccnc45)cc32)cc1`, for which the GI50 was 2.45 µM in the assay with CAKI-1 renal and 2.27 µM in the assay with OVCAR-3 ovarian. Also, the TGI in the assay on CAKI-1 renal was over 100 µM; with OVCAR-3 ovarian, 5.8 µM.

As for `CSc1c(C)c(C)nn1-c1ccccc1`, the TGI in the assay on SN12C renal, in the assay on CAKI-1 renal, with HT29 colon, in the assay with SNB-75 CNS, in the assay on M14 melanoma and in the assay on EKVX NSCLC was over 100 µM throughout. For the same compound, the TGI with SK-MEL-28 melanoma, in the assay on SW-620 colon and in the assay on UACC-62 melanoma was over 100 µM throughout.

As for `CC(C)c1ccccc1NC(=O)/C(Cl)=C1/Sc2ccccc2NC1=O`, the TGI in the assay on SN12C renal was over 100 µM; in the assay on CAKI-1 renal, over 100 µM; with SNB-75 CNS it was 87.9 µM; with M14 melanoma it was over 100 µM; with EKVX NSCLC, over 100 µM; in the assay with SK-MEL-28 melanoma it was over 100 µM. In addition, the TGI with SW-620 colon and with UACC-62 melanoma was over 100 µM each time.

`O=c1ncccn1C1C=C(CO)C(O)C1O` (centres undefined): the TGI in the assay with CAKI-1 renal, in the assay with HT29 colon, with M14 melanoma, in the assay with EKVX NSCLC, in the assay on OVCAR-3 ovarian and in the assay on SK-MEL-28 melanoma was over 50 µM each time. The TGI with SW-620 colon is over 50 µM.

Turning to `CCSc1nc(N)c2cn[nH]c2n1`, the GI50 with SN12C renal is 28.7 µM; in the assay on CAKI-1 renal it was 22.3 µM; in the assay with HT29 colon, 29.4 µM; with M14 melanoma it was 33.8 µM; with EKVX NSCLC it was 51.4 µM; in the assay on OVCAR-3 ovarian, 22.1 µM. The GI50 in the assay on SK-MEL-28 melanoma is 33.2 µM; in the assay on SW-620 colon, 31.7 µM; in the assay with UACC-62 melanoma, 18 µM. For the same compound, the TGI is 70.9 µM in the assay with SN12C renal; 76 µM in the assay with CAKI-1 renal; 81.9 µM in the assay with HT29 colon; over 100 µM in the assay with M14 melanoma; over 100 µM in the assay with EKVX NSCLC; 72.1 µM with OVCAR-3 ovarian. Further, the results for the TGI in the assay on SK-MEL-28 melanoma, in the assay on SW-620 colon and in the assay with UACC-62 melanoma were over 100 µM, over 100 µM and 38.9 µM, respectively.

Regarding `CC1(Cc2ccccc2)NC(=S)NC1=O` (centres undefined), the TGI in the assay with SN12C renal, in the assay with CAKI-1 renal, in the assay on HT29 colon, with SNB-75 CNS, in the assay with M14 melanoma and with EKVX NSCLC was over 100 µM each time. In addition, the TGI in the assay on SK-MEL-28 melanoma and in the assay on SW-620 colon was over 100 µM throughout.

With `O=c1c2c3c(sc2n2c(-c4cc(-c5ccccc5)nn4-c4ccccc4)nnc2n1Cc1ccccc1)CCCC3`, the GI50 is over 100 µM in the assay with SN12C renal; over 100 µM in the assay on CAKI-1 renal; 12.1 µM in the assay with SNB-75 CNS; over 100 µM in the assay with EKVX NSCLC; over 100 µM in the assay on OVCAR-3 ovarian; over 100 µM with SK-MEL-28 melanoma. For the same compound, the GI50 in the assay on UACC-62 melanoma is over 100 µM. For the same compound, the TGI is over 100 µM in the assay on SN12C renal; over 100 µM with CAKI-1 renal; 56.4 µM in the assay on SNB-75 CNS; over 100 µM in the assay with EKVX NSCLC; over 100 µM in the assay on OVCAR-3 ovarian; over 100 µM with SK-MEL-28 melanoma. This compound also had a TGI with UACC-62 melanoma of over 100 µM.

Regarding `C[C@H]1[C@H](C)CC[C@]2(C(=O)NCCNCCN)CC[C@]3(C)C(=CC[C@@H]4[C@@]5(C)CCC(=O)C(C)(C)[C@@H]5CC[C@]43C)[C@H]12`, the GI50 with SN12C renal was 1.61 µM; with CAKI-1 renal it was 1.75 µM; with M14 melanoma it was 1.79 µM; in the assay on EKVX NSCLC, 1.58 µM; in the assay on OVCAR-3 ovarian, 1.8 µM; with SK-MEL-28 melanoma, 1.65 µM. Also, the GI50 in the assay with SW-620 colon was 1.84 µM; in the assay on UACC-62 melanoma it was 1.6 µM. Further, the TGI is 2.98 µM with SN12C renal; 4.01 µM with CAKI-1 renal; 3.41 µM in the assay with M14 melanoma; 3.02 µM in the assay on EKVX NSCLC; 3.3 µM in the assay with OVCAR-3 ovarian; 3.02 µM in the assay with SK-MEL-28 melanoma. In addition, the TGI was 3.47 µM in the assay with SW-620 colon and 2.96 µM in the assay on UACC-62 melanoma.

For `COC1OC(C)C(OCc2ccccc2)C(OS(=O)(=O)c2ccc(C)cc2)C1OS(=O)(=O)c1ccc(C)cc1` (centres undefined), the TGI with SN12C renal, in the assay on CAKI-1 renal, with HT29 colon, in the assay on SNB-75 CNS, with M14 melanoma and in the assay with EKVX NSCLC was over 100 µM throughout. In addition, the TGI in the assay on OVCAR-3 ovarian, in the assay with SK-MEL-28 melanoma and with SW-620 colon was over 100 µM in each case.
